Results: patent US20080248008A1, “Inhibitors of Protein Kinase a Anchoring” (priority 2004, published 2008)

Tests used:
Csk-PS364 = assay: Csk phosphoserine 364 level in forskolin-stimulated T cells; assay type: cell-based, human; settings: 25 μM, 12 hours
Description: Antibodies. RI or RII were immunoprecipitated with polyclonal antibodies against human RI or human RII at a 3 μg/ml dilution (Santa Cruz Biotechnology). MEME3 or scrambled peptide was immunoprecipitated with 1.5 μl of anti-GFP antiserum (Invitrogen). Monoclonal (Transduction laboratories) or polyclonal antibodies (Santa Cruz Biotechnology) against human RIα and RIIα were used at a 1 μg ml^−1 or 0.5 μg ml^−1 ilution for Western blotting. Polyclonal antibodies against human Cα (Santa Cruz Biotechnology) and LAT (Upstate Biotechnology) were used at a 0.4 μg ml^−1 and a 1 μg ml^−1 dilution for Western blotting, respectively. Polyclonal antibodies against LckPY505 (Cell Signaling) were used at a 1:1000 dilution and polyclonal antibody raised towards PS364 in Csk were used as previously described (Yaqub et al., Biochem. J., 372: p 271-8, 2003). Polyclonal antibodies against StAR (Affinity BioReagents) were used at 1 μg ml^−1. […]
Peripheral blood T cells were treated with 25 μM M3-Arg11 or mock treated for 12 hours and stimulated with forskolin to activate the PKA-Csk inhibitory pathway. Subsequently, cell lysates were subjected to […], blotting onto a PVDF membranes and the Csk phosphoserine 364 levels were assessed by immunoblotting using phosphospecific antibodies to Csk-PS364 (FIG. 19, upper panel).

[1] = tested on: human peripheral blood T cells; assay: Flow cytometry of cell death/apoptosis in activated T cells; assay type: cell-based
Description: Flow cytometry. Negatively selected CD3^+ T cells cultured in flat-bottom, 96-well plates (Costar; 0.2×10^6 cells/well) were activated with OKT-3 (4 ng/μl) for […] at 37° C., crosslinked with F(ab′)2 fragments (39 μg/ml) and thereafter incubated with arginine-coupled peptides at 0-50 μM. For analyzing the DNA content, the cells were incubated further for 36-40 hours and thereafter washed in PBS, fixed in […], permeabilized in FACS Permeabilizing Solution (BD BioSciences, San Jose, Calif.) for 10 min and washed in PBS containing 1% BSA and 100 μg/ml RNase prior to being stained with propidium iodide (PI, Cat. No. 51-66211E BD Biosciences Pharmingen, San Diego, Calif., USA) (25 μg/ml) for 15 min 37° C. The cells were washed twice in PBS and fixed in 1% paraformaldehyde before flow cytometry (FACSCalibur, BD Biosciences, San Jose, Calif.) and subsequent analysis using FlowJo software (Tree Star, San Carlos, Calif.). For analyzing apoptosis and necrosis, the cells were incubated further for 18 hours and thereafter washed in PBS, fixed in 1% paraformaldehyde and washed with annexin binding buffer (Cat. No. 51-66121E, BD Biosciences) prior to being stained with Annexin V (3 μl to 50 μl volume, Cat. No. 556419, BD Biosciences Pharmingen) and PI (3 μg/ml) for 20 min on ice. The cells were washed twice in PBS and fixed in 1% paraformaldehyde before being analyzed on a flow cytometer (FACSCalibur, BD Biosciences, San Jose, Calif.) and analyzed using FlowJo software (Tree Star, San Carlos, Calif.).
To test whether MEME3-Arg11 induces cell death or apoptosis in human peripheral blood T cells, activated T cells treated with increasing doses of MEME3-Arg11 were analysed by forward scatter/sideward scatter (FSC/SSC) in a fluorescence-activated cell sorter (FACS). […] Apoptosis was also assessed by Annexin V^FITC labeling under the same experimental conditions. […] The effect of the peptides on cellular DNA content was also measured by flow cytometry after permeabilization of the fixed cells and PI-staining.
Cell death was also analysed by monitoring PS externalization by Annexin V binding and destruction of the cellular membrane by PI staining using FACS.

PKA-RIIα = target: T1, PKA-RIIα (Mus musculus, UniProt P12367); assay: Solid phase immobilization from Y-1 adrenal cell lysate, PKA-RIIα; assay type: binding; settings: overnight
T1 construct: host or cells: mouse Y-1 adrenocortical cells (lysate)
T1 sequence (P12367 whole entry): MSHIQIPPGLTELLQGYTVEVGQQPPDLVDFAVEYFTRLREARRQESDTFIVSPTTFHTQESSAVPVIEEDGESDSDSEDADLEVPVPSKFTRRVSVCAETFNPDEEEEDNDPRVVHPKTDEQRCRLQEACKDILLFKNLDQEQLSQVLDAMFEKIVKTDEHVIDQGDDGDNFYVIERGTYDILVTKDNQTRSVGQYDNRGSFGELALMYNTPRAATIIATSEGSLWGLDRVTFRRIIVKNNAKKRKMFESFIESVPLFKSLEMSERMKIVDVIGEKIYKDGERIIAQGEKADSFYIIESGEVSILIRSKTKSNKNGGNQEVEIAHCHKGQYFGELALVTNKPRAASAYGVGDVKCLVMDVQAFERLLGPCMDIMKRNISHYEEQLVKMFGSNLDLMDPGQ
Description: Solid phase assay and cell lysate. 5×10^6 Y1 cells or 20×10^6 Jurkat T cells lysed in 150 mM NaCl, 1% NP-40, 0.5% deoxycholate, 0.1% SDS and 50 mM Tris HCl (7.8) were incubated overnight at 4° C. with MEME3 and SM3 peptides synthesized on membranes (Autospot, Intavis, AG). The membranes were washed two times for 10 minutes in lysis buffer and thereafter in high salt lysis buffer (1 M NaCl) before boiling in SDS-PAGE loading buffer.
A solid phase immobilization assay (schematic illustration in FIG. 24, left panel) was used to analyse endogenous PKA binding to MEME3. MEME3 and SM3 peptides synthesized in triplicate on membranes were incubated overnight in lysate from Y-1 adrenal cells. Thereafter bound proteins were eluted, subjected to 10% PAGE and analysed by immunoblotting using specific antibodies against PKA-RIα, PKA-C and PKA-RIIα subunits.

[2] = activated T cells, increasing doses

| Substance | reduction of Csk-PS364 level (Csk-PS364) | annexin V binding [1, 2] | morphological changes (FSC/SSC) [1, 2] | late apoptotic cells (AV+/PI+) ([1]; overnight) | DNA content (aneuploidity), PI-staining ([1]; permeabilized fixed cells) | immobilization of PKA-RIIα (PKA-RIIα) |
| --- | --- | --- | --- | --- | --- | --- |
| LEQYANQLADQIIKEATERRRRRRRRRrr [MEME3-Arg11] | 70% | no increase in annexin V binding, but rather a small decrease | no morphological changes characteristic of apoptosis | No late apoptotic cells (AV+/PI+) were detected | No change in DNA content |  |
| IEKELAQQYQNADAITLE [SM3, scrambled MEME3 negative control peptide, reference compound] |  |  |  |  |  | Neither PKA-RIα, PKA-C nor PKA-RIIα were immobilized |
